# Test results taken from US20110318397A1, “METHOD FOR PREPARING HIGH PURITY GINSENOSIDE RD USING LACTOBACILLUS CASEI AND COSMETIC COMPOSITION FOR ANTI-WRINKLE COMPRISING THE HIGH PURITY GINSENOSIDE RD” (priority 2010, published 2011).
# Read-outs that look alike come from different tables or passages of the source.
# Legend:
# [1] = test system: Human fibroblasts (WI-38); assay: Collagen synthesis, procollagen type-I C-peptide kit; format: cell-based; conditions: WI-38 fibroblasts, 24 h; for collagen production as compared to the control (sample-untreated cells): 1×10^−4% (w/v) or lower
# Experimental: Human fibroblasts (WI-38) that had been stored at −80° C. or in liquid nitrogen were used. The cells were uniformly placed on a 96-well plate, with 2.0×10^4 cells/well.
# After culturing in MEM (FBS 5%) for 24 hours, the medium was replaced with a fresh serum-free medium and the cells were treated with gradually diluted sample. […] After treatment with the sample, the cells were further cultured for 24 hours on a 96-well plate. Then, the quantity of collagen was measured using a collagen measurement kit (Procollagen type-I C-peptide MK101, Takara).
# [2] = test system: human fibroblasts
# Experimental: MTT [3-(4,5-dimethylthiazol-2-yl)-2,5-diphenyltetrazolium bromide, Sigma M5655] assay was carried out to test the effect of the sample on proliferation of human fibroblasts.
# The fibroblasts that had been stored at −80° C. or in liquid nitrogen were used. The cells were uniformly placed on a 96-well plate, with 2.0×10^4 cells/well. After culturing in MEM (FBS 5%) for 24 hours, the medium was replaced with a fresh serum-free medium and the cells were treated with gradually diluted sample. The samples were ginsenoside Rd and retinol. After treatment with the sample, the cells were further cultured for 24 hours on a 96-well plate. Subsequently, after adding 10 μL of MTT solution (5 mg/mL) to each well, the cells were cultured for 4 hours. After removing the medium and adding 100 μL of dimethyl sulfoxide to each well followed by shaking for 10 minutes, absorbance was measured at 540 nm using an ELISA reader.
Structure (SMILES),maximum collagen production ([1]; at 1×10^−2 (w/v) or lower) [%],"cell viability ([2]; human, 24 h) [%]",collagen production as compared to the control (sample-untreated cells) [1],cell viability [2] [%],cytotoxicity [2]
"CC1=C(/C=C/C(C)=C/C=C/C(C)=C/CO)C(C)(C)CCC1 [Retinol, retinol, reference compound]",30,100,,,
"CC(C)=CCC[C@](C)(O)[C@H]1CC[C@]2(C)[C@@H]1[C@H](O)C[C@@H]1[C@@]3(C)CC[C@H](O)C(C)(C)[C@@H]3[C@@H](O[C@@H]3O[C@H](CO)[C@@H](O)[C@H](O)[C@H]3O[C@@H]3O[C@@H](C)[C@H](O)[C@@H](O)[C@H]3O)C[C@]12C [Rg2, ginsenoside Rg2]",,,remarkably decreased collagen production,,
CC(C)=CCC[C@](C)(O[C@@H]1O[C@H](CO)[C@@H](O)[C@H](O)[C@H]1O)[C@H]1CC[C@]2(C)[C@@H]1[C@H](O)C[C@@H]1[C@@]3(C)CC[C@H](O[C@@H]4O[C@H](CO)[C@@H](O)[C@H](O)[C@H]4O[C@@H]4O[C@H](CO)[C@@H](O)[C@H](O)[C@H]4O)C(C)(C)[C@@H]3CC[C@]12C [ginsenoside Rd],,,slightly decreased collagen production,100,no cytotoxicity
